Data published in paper PMC12259270, “Sensory neuron–expressed FGF13 controls nociceptive signaling in diabetic neuropathy models” (The Journal of Clinical Investigation, 2025).
Residues, ends and D or L forms follow the SMILES beside them. *: point of attachment. Cbz = O=C(OCc1ccccc1)*; OtBu = CC(C)(C)O*

Test system: C57BL/6 mice
Assay: Capsaicin-induced thermal hypersensitivity (Hargreaves)
Type: in vivo, mouse
Excerpt: FGF13 is a neuronal gene ubiquitously transcribed in DRG neuronal subtypes ([43]–[46]). To investigate neuronal subtype enrichment of the FGF13 transcript, we examined a gene panel including FGF13, SCN9A, and several marker genes in mouse single-cell transcriptomic data (Supplemental Figure 10) ([43]–[46]). […] Critically, putative silent nociceptors marked by somatostatin (SST), and the nicotinic cholinergic receptor α-3 subunit (CHRNA3) contribute to development of inflammatory mechanical hyperalgesia ([47]). […] We next determined if PW164 modulation of the FGF13/Nav1.7 complex could suppress nociceptive behaviors in WT mice. We tested whether intraplantar (i.pl.) injection (5 μL) of PW164 altered hind paw withdrawal in response to low or high intensity von Frey filament (LVF or HVF, respectively) mechanical stimulation (Figure 3A). […] Next, we evaluated PW164’s effect on mechanical and thermal hindpaw sensitivity in capsaicin-induced nociceptive hypersensitivity models. […] Next, we performed in vivo target validation in WT mice that received an intrathecal (i.t.) injection in L5 of AAV2-shFGF13 (6 μL, viral titers 1 × 10^12 vector genomes (vg)/mL); a control group received an equal number of AAV2-shCTRL particles (Figure 3C).
Experiments were performed on 6- to 12-week-old male C57BL/6 mice (The Jackson Laboratory, Bar Harbor, ME) housed in the AAALAC-accredited facility at the University of Texas Medical Branch. Mice were group-housed with up to 5 mice per cage on a 12-to-12-hour light–dark cycle and had access to water and food ad libitum. All protocols were approved by the Institutional Animal Care and Use Committee (IACUC) at the University of Texas Medical Branch and in accordance with the National Institutes of Health (NIH) guidelines.
PW164 and ZL192 were dissolved in DMSO and saline in a ratio of 1:10. 0.1% capsaicin (10% ethanol, 10% Tween-20 in saline; Sigma-Aldrich). All the compounds were injected at the center of the hind paw. The control group received a DMSO-saline mixture. […]
AAV2 viral particles packaged by the University of North Carolina Gene Therapy Core Facility (viral titer ranging […]
Before intrathecal injections in the lumbar region, mice were maintained in an anesthetizing box with 2% isoflurane to induce unconsciousness. Six microliters of viral vector were gently injected into the CSF through a 30-gauge needle with a Hamilton syringe in the lumbar area between vertebrae L4 and L5 by gently gripping the iliac crest of the mouse and inserting the needle with an angle of 45°. The correct procedure was confirmed by the mouse’s tail reflexiv e flick. […]

`COC(=O)[C@@H](NC(=O)[C@H](CCC(=O)OC(C)(C)C)NC(=O)[C@H](CC(C)C)NC(=O)[C@@H]1CCCN1C(=O)OCc1ccccc1)C(C)C` [PW164] (Cbz-PLE(OtBu)V-OMe) was tested, and the “thermal sensitivity in AAV2-shFGF13 mice after capsaicin” value (PW164 5 μL, 0.7mg/mL hind paw) was “did not further modify” and the capsaicin-induced thermal sensitivity (PW164 at the capsaicin injection site, 30 minutes post-capsaicin) was “inhibited”.
